Results as given in paper PMC11796312, “Multifunctional, Fluorene‐Based Modulator of Cholinergic and GABAergic Neurotransmission as a Novel Drug Candidate for Palliative Treatment of Alzheimer's Disease” (Angewandte Chemie (International Ed. in English), 2024).

Experiments:
[1] = target: T1, mGAT3 (Mus musculus, UniProt P31649); assay: [3H]GABA uptake assay, mGAT3; format: cell-based; settings: GABA uptake assay; read-out: mGAT3 IC50
T1 sequence (P31649 1-602): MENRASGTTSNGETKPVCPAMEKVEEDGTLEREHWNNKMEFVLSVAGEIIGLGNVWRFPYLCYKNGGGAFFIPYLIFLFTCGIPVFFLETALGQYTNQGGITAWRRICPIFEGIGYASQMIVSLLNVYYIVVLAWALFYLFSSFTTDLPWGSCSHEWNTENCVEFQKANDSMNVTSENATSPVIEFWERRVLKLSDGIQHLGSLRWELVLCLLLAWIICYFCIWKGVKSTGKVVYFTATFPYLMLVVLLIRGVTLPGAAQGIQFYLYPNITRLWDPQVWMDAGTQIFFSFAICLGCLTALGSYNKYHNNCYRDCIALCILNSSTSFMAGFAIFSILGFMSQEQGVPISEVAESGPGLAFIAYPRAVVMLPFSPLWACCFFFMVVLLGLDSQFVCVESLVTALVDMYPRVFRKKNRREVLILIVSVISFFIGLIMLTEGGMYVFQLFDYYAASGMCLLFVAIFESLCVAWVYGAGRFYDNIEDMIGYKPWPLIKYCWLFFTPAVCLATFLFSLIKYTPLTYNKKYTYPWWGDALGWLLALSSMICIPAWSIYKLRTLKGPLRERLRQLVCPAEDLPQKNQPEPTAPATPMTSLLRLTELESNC

[2] = target: T2, mGAT1 (Mus musculus, UniProt P31648); assay: [3H]GABA uptake assay, mGAT1; format: cell-based; settings: GABA uptake assay; read-out: mGAT1 IC50
[3] = target: T3, mGAT2 (Mus musculus, UniProt P31651); assay: [3H]GABA uptake assay, mGAT2; format: cell-based; settings: GABA uptake assay; read-out: mGAT2 IC50
T3 sequence (P31651 1-614): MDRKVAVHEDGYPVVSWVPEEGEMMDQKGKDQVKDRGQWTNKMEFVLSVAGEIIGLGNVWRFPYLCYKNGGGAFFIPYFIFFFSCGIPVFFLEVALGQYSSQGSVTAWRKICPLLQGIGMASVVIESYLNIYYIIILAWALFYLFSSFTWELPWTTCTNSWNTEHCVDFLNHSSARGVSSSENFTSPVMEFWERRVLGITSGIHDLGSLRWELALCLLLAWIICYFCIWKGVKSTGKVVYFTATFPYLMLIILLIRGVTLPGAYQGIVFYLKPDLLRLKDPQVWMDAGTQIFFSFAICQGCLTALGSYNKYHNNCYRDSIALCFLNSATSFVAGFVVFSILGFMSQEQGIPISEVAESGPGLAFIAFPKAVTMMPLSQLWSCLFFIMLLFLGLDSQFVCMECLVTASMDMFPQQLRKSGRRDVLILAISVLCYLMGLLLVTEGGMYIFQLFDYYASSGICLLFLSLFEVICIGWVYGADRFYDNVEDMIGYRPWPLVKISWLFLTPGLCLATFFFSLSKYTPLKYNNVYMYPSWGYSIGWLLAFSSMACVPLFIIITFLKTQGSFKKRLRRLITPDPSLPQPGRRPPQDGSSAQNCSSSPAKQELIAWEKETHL

[4] = target: T4, eqBuChE (Equus caballus, UniProt P81908); assay: biochemical; settings: means±SEM of at least three experiments
T4 construct: purchased Sigma-Aldrich
T4 sequence (P81908 whole entry): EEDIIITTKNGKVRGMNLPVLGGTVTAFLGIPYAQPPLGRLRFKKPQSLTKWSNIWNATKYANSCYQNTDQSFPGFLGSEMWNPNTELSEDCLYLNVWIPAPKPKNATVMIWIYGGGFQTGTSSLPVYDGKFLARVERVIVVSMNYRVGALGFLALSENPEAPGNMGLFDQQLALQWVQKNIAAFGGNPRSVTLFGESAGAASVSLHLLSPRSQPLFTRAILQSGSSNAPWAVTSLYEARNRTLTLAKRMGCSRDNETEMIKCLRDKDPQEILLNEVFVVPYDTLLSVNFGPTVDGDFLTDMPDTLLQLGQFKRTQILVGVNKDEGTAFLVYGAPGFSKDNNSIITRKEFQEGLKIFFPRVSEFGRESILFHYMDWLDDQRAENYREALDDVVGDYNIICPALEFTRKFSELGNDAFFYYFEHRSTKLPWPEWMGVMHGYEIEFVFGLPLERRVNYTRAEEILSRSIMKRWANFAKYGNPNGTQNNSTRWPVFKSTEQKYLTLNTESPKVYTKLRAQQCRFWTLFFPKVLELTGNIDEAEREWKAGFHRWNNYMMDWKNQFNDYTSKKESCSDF

[5] = target: T5, human butyrylcholinesterase (hBuChE) (Homo sapiens, UniProt P06276); assay: biochemical; settings: for IC50: means±SEM of at least three experiments; for inhibition at 1 µM: inhibitor concentration 1 μM, read-out: hBuChE % inh.
T5 construct: from human plasma was from Vivonics (Bedford, MA, USA); purchased Vivonics (Bedford, MA, USA); host or cells: human plasma
T5 sequence (P06276 29-602): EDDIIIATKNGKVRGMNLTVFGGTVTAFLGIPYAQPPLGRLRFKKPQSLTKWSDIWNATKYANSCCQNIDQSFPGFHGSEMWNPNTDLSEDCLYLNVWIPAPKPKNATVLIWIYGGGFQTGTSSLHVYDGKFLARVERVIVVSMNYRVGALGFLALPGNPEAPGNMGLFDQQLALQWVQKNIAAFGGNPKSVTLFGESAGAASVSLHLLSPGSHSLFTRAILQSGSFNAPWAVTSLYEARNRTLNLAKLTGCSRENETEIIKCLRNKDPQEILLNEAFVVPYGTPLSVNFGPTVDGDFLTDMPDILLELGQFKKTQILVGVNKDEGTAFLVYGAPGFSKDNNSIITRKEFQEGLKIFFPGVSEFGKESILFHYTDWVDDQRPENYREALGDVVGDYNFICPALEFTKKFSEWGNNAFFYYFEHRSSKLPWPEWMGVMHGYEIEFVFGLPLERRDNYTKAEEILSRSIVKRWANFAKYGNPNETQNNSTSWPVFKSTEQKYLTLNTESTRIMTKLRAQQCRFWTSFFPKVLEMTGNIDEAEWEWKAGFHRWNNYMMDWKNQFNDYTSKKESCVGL

[6] = target: T6, mGAT4 (Mus musculus, UniProt P31650); assay: [3H]GABA uptake assay, mGAT4; format: cell-based; settings: GABA uptake assay; mGAT4 corresponds to GAT3; read-out: mGAT4 IC50
T6 sequence (P31650 1-627): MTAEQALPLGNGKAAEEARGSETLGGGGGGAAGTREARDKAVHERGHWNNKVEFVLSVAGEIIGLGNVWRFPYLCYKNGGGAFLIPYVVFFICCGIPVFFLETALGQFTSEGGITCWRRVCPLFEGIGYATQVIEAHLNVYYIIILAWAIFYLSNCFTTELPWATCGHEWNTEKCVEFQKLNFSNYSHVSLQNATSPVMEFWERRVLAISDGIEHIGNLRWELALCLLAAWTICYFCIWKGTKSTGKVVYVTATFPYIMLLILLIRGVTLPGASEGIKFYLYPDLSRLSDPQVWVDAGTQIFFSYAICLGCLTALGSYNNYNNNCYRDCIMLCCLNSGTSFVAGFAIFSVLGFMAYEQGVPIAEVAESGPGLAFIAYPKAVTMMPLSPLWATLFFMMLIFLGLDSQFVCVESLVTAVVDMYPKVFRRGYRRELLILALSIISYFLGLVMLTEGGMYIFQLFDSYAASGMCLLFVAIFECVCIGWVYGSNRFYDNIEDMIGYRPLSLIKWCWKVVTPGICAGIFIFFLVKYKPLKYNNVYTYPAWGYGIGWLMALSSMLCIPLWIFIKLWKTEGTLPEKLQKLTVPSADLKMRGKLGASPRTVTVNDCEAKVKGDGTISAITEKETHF

[7] = target: T2, mGAT1; assay: MS Binding Assay with NO 711 as marker; settings: for Ki: MS Binding Assay, NO 711 marker, read-out: pKi ± SEM toward mGAT1 (converted); for percent of remaining NO711 binding, mGAT1: 100 μM inhibitor
[8] = target: T7, eeAChE (Electrophorus electricus, UniProt O42275); assay: Cholinesterase inhibition, Ellman's protocol, eeAChE; format: biochemical; settings: read-out: eeAChE % inh.
T7 construct: purchased Sigma-Aldrich
T7 sequence (O42275 24-633): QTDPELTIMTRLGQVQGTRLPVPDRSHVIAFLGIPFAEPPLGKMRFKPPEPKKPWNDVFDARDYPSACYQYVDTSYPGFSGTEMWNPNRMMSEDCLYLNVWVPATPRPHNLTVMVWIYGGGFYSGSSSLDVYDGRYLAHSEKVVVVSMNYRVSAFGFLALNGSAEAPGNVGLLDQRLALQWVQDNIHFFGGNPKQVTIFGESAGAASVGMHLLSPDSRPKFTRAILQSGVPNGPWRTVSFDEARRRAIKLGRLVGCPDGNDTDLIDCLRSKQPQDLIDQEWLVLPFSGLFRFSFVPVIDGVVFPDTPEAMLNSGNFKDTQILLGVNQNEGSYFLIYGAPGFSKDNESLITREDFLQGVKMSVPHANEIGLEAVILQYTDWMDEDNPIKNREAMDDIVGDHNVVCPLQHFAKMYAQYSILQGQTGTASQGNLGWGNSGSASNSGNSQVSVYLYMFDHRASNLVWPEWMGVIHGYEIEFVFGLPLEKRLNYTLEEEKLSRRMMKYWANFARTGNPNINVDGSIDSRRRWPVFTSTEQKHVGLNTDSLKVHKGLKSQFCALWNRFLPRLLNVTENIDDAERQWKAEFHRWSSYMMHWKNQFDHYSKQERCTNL
Description: In vitro pharmacological assays.
The in vitro inhibitory activity toward cholinesterases (eeAChE, eqBuChE,
The target compounds were tested for their inhibitory potency against cholinesterases using
Ellman’s protocol[32] modified for 96-well microplates.
The stock solutions of the
target compounds were prepared in DMSO and diluted with water, giving the desired final
concentrations. The enzymes were prepared as 5 U/mL aqueous stock solutions and diluted
(AChE or BuChE) were added to the reaction mixture in the wells, containing 25 μL of the
target compound (in case of blank samples – water or water/DMSO mixture), 200 μL of 0.1
M phosphate buffer (pH = 8.0) and 20 μL of 5,5'-dithiobis-(2-nitrobenzoic acid) DTNB
All those reagents were preincubated for 5 min at 25 °C for the reactions with the
animal enzymes (eeAChE or eqBuChe) and 36 °C for the human enzyme ( hBuChE) tests. The
enzymatic reaction was initiated by the addition of 20 μL of substrate acetylthiocholine iodide
using the EnSpire multimode microplate reader (PerkinElmer, Waltham, MA, USA). Target
compounds were tested at the screening concentrations of 10 μM or 1 µM for inhibitory
potencies towards animal cholinesterases or human enzyme, respectively. Percent of enzyme
inhibition was calculated based on the formula 100 -(S/B)x100, where S and B were the
respective enzyme activities with and without the test compound, respectively. Compounds
with the enzyme inhibitory activities at 10 μM better than 50% ( eeAChE or eqBuChe) and at
were based on the absorbance measured at seven different inhibitor concentrations, then
percentages of enzymes’ inhibition were plotted against the applied inhibitor concentrations
using nonlinear regression (GraphPad Prism 9; GraphPad Software, San Diego, CA, USA).
All the experiments were performed in
a %inh. at an inhibitor concentration of 10 µM

[9] = target: T8, human serotonin 5-HT6 receptor (Homo sapiens, UniProt P50406); assay: cAMP 5-HT6 functional assay; format: cell-based; settings: % of maximal antagonist response (SB258585 10^-5M); 22 nM serotonin
T8 construct: host or cells: 1321N1
T8 sequence (P50406 whole entry): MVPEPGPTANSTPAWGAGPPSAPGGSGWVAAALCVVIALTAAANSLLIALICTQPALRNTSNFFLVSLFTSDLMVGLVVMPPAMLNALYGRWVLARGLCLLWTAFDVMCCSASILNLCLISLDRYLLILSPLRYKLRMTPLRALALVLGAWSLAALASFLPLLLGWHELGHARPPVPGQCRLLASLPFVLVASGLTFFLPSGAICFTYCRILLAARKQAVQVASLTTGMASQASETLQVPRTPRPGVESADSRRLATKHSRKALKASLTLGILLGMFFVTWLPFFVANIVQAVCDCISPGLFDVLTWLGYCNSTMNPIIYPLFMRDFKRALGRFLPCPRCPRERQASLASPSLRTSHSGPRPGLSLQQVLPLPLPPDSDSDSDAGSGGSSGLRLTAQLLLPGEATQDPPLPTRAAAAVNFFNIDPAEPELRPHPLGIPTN
Description: Functional assays for 5-HT6 receptor
Test compounds were dissolved in dimethyl sulfoxide (DMSO) at a concentration of 10 mM.
Serial dilutions were prepared in a 96-well microplate in assay buffer, and 8 concentrations
were tested. For the 5-HT6, adenylyl cyclase activity was monitored using cryopreserved
cells were resuspended in stimulation buffer (HBSS, 5 mM HEPES, 0.5 IBMX, and 0.1%
BSA at pH 7.4) at 2x10^5 cells/ml. The same volume (10 μl) of cell suspension was added to
the tested compounds. Samples were loaded onto a white opaque half-area 96-well
reference agonist for the 5-HT6 receptor. The agonist and antagonist were added
simultaneously. Cell stimulation was performed for 30 minutes at room temperature. After
incubation, cAMP measurements were performed with homogeneous TR-FRET immunoassay
using the LANCE Ultra cAMP kit (PerkinElmer, USA). The volume of 10 μl of EucAMP
Tracer Working Solution and 10 μl of ULight-anti-cAMP Tracer Working Solution were
added, mixed, and incubated for 1 h. The TR-FRET signal was read on an EnVision
microplate reader (PerkinElmer, USA). IC 50 and EC 50 were determined by nonlinear
regression analysis using GraphPad Prism 9.0 software.

[10] = test system: mouse microglial cells SIM-A9; assay: MTT cell viability assay, SIM-A9; format: cell-based; settings: SIM-A9, 24 h; read-out: IC50 (MTT) ± SEM
Excerpt: (§1) Human neuroblastoma cells SH-SY5Y and mouse microglial cells SIM-A9 were used to evaluate cell viability, intracellular RONS, and malondialdehyde (MDA; CAS No. 542–78-9).
(§2) SH-SY5y cells were cultivated in Dulbecco's modified Eagle's medium (DMEM; Biosera, Nuaille, France) supplemented with 10% fetal bovine serum (Biosera) and 1% penicillin-streptomycin antibiotic solution (Sigma-Aldrich, St. Louis, MO, USA). The culture medium for SIM-A9 cells was further supplemented with donor horse serum (Biosera). The cells were incubated at 37 °C in a CO2 incubator (BINDER CO2 incubator CB 160, Tuttlingen, Germany) and routinely passaged by trypsinization at 75 –85% confluence.
(§3) Colorimetric Cell Viability Assay
(§4) The toxicological indices IC 50 used in the present study were measured utilizing 3-(4,5-dimethylthiazol-2-yl)-2,5-diphenyl-tetrazolium bromide (MTT) reduction assay after (1 picture or pasted object on this page, not shown here)
(§5) 24 h incubation with tested compounds. […]
(§6) incubation, the cultivation medium containing serially diluted substances was aspirated and replaced with a fresh medium containing MTT at a concentration of 0.5 mg/mL and subsequently incubated at 37 °C for 1 h. […] Cell viability was assessed spectrophotometrically by the amount of formazan produced. Absorbance was measured at 570 nm with 650 nm reference wavelength on Spark (Tecan Group Ltd, Switzerland). […]

[11] = test system: SH-SY5Y cells; assay: Intracellular RONS, DCFH-DA probe, SH-SY5Y; format: cell-based, human
[12] = test system: Human neuroblastoma cells SH-SY5Y; assay: MTT cell viability assay, SH-SY5Y; format: cell-based; settings: 24 h, read-out: IC50 (MTT) ± SEM
Excerpt: as §1, §2, §3, §4, §5, §6

[13] = test system: SIM-A9 cells; assay: Intracellular O2•-, DHE probe, SIM-A9; format: cell-based, mouse
[14] = test system: SH-SY5Y cells; assay: Intracellular O2•-, DHE probe, SH-SY5Y; format: cell-based, human
[15] = test system: SH-SY5Y cells; assay: LC-MS determination of total MDA, SH-SY5Y; format: cell-based, human
[16] = test system: SIM-A9 cells; assay: Intracellular RONS, DCFH-DA probe, SIM-A9; format: cell-based, mouse
[17] = test system: SIM-A9 cells; assay: LC-MS determination of total MDA, SIM-A9; format: cell-based, mouse

Compound: O[C@H](CNCc1ccccc1)[C@H](Cc1ccccc1)NC1c2ccccc2-c2ccccc21 [Compound 1]
- IC50 [1]: 7.08 ± 1.15 µM
- IC50 [2]: 11 µM
- IC50 [3]: 9.77 ± 1.82 µM
- IC50 [4]: 0.63 ± 0.02 µM
- IC50 [5]: 0.2 µM
- IC50 [6]: 7.76 ± 1.99 µM
- Ki [7]: 49 µM
- inhibition at 10 µM [8]: < 10%

Compound: COc1ccccc1CNC[C@H](O)[C@H](Cc1ccccc1)NC1c2ccccc2-c2ccccc21 [Compound 2]
- IC50 [2]: 6.31 ± 1.02 µM
- IC50 [3]: 13.2 µM
- IC50 [4]: 0.28 ± 0.01 µM
- IC50 [5]: 0.27 ± 0.01 µM
- IC50 [6]: 6.17 ± 0.57 µM
- Ki [7]: 33.9 µM
- inhibition at 10 µM [8]: < 10%

Compound: COc1cccc(CNC[C@H](O)[C@H](Cc2ccccc2)NC2c3ccccc3-c3ccccc32)c1 [Compound 3]
- IC50 [2]: 7.41 ± 0.34 µM
- IC50 [3]: 12 µM
- IC50 [4]: 2.2 ± 0.1 µM
- inhibition at 1 µM [5]: 67.7%
- IC50 [6]: 7.08 ± 0.49 µM
- Ki [7]: 30.9 µM
- inhibition at 10 µM [8]: < 10%

Compound: CC(C)(C)c1cccc(CNC[C@@H](O)[C@H](Cc2ccccc2)NC2c3ccccc3-c3ccccc32)c1 [Compound 4]
- IC50 [1]: 8.91 ± 1.03 µM
- IC50 [2]: 14.8 µM
- IC50 [3]: 26.3 µM
- IC50 [4]: 0.69 ± 0.04 µM
- inhibition at 1 µM [5]: 68%
- percent of remaining NO711 binding, mGAT1 [7]: 91%
- inhibition at 10 µM [8]: < 10%

Compound: O[C@@H](CNCC1CCCCC1)[C@H](Cc1ccccc1)NC1c2ccccc2-c2ccccc21 [Compound 5]
- IC50 [1]: 11.5 µM
- IC50 [3]: 10.7 µM
- IC50 [4]: 0.96 ± 0.03 µM
- inhibition at 1 µM [5]: 76.5%
- percent of remaining NO711 binding, mGAT1 [7]: 72%
- inhibition at 10 µM [8]: 19.9%

Compound: COc1ccc(NS(=O)(=O)c2ccc(I)cc2)cc1N1CCN(C)CC1 [SB258585, reference compound]
- 5-HT6 antagonist mode E max % [9]: 100%

Compound: CC(C)(C)OO [tBHP]
- IC50 [10]: 60.4 ± 3.54 µM
- intracellular RONS, fold vs untreated control ([11]; conc. = IC50, 1 h): 1.25 fold
- intracellular RONS, fold vs untreated control ([11]; conc. = IC50, 4 h): 1.11 fold
- intracellular RONS change ([11]; conc. = IC50, 24 h): decrease of RONS
- intracellular RONS, fold higher ([11]; conc. = ½ IC50, 1 h): 1.12 fold
- IC50 [12]: 19.9 ± 1.35 µM
- intracellular O2•-, times higher ([13]; IC50, 1 h): 1.11 fold
- intracellular O2•-, times higher ([13]; IC50, 4 h): 1.10 fold
- intracellular O2•-, times higher ([13]; IC50, 24 h): 1.25 fold
- intracellular O2•-, fold higher ([13]; ¼ IC50, 24 h): 1.27 fold
- intracellular O2•-, times higher ([13]; ½ IC50, 1 h): 1.10 fold
- intracellular O2•-, times higher ([13]; ½ IC50, 4 h): 1.10 fold
- intracellular O2•-, times higher ([13]; ½ IC50, 24 h): 1.32 fold
- intracellular O2•-, times higher ([14]; IC50, 1 h): 1.25 fold
- intracellular O2•-, times higher ([14]; IC50, 4 h): 1.23 fold
- intracellular O2•-, fold higher ([14]; IC50, 24 h): 1.11 fold
- intracellular O2•-, times higher ([14]; ¼ IC50, 1 h): 1.10 fold
- intracellular O2•-, times higher ([14]; ¼ IC50, 4 h): 1.10 fold
- intracellular O2•-, times higher ([14]; ½ IC50, 1 h): 1.22 fold
- intracellular O2•-, times higher ([14]; ½ IC50, 4 h): 1.16 fold
- intracellular O2•-, fold higher ([14]; ½ IC50, 24 h): 1.10 fold
- MDA level, times higher ([15]; IC50, 1 h): 1.45 fold
- MDA level, fold higher ([15]; IC50, 4 h): 1.45 fold
- MDA level, times higher ([15]; IC50, 24 h): 1.61 fold
- MDA level, times higher ([15]; ¼ IC50, 1 h): 1.23 fold
- MDA level, times higher ([15]; ¼ IC50, 24 h): 1.11 fold
- MDA level, times higher ([15]; ½ IC50, 1 h): 1.18 fold
- MDA level, fold higher ([15]; ½ IC50, 4 h): 1.18 fold
- MDA level, times higher ([15]; ½ IC50, 24 h): 1.20 fold
- intracellular RONS, times higher ([16]; conc. = IC50, 1 h): 1.21 fold
- intracellular RONS, times lower ([16]; conc. = IC50, 24 h): 1.30 fold
- MDA level, times higher ([17]; IC50, 4 h): 1.27 fold
- MDA level, fold higher ([17]; IC50, 24 h): 1.45 fold
- MDA level, times higher ([17]; highest concentration (IC50), 1 h): 1.18 fold
- MDA level, times higher ([17]; ¼ IC50, 4 h): 1.16 fold
- MDA level, times higher ([17]; ½ IC50, 4 h): 1.18 fold
- MDA level, fold higher ([17]; ½ IC50, 24 h): 1.15 fold
